The values below come from paper PMC11157048 (Frontiers in Pharmacology, 2024).

In general, IC50 refers to the concentration at which inhibition is half-maximal. By Ki is commonly meant the dissociation constant of the complex between target and ligand, obtained from inhibition or displacement. Read a high Ki as a looser hold on the target. As a reminder, the AUC(0-t) is the area under the concentration-time curve up to a stated or last time point. A low value points to low exposure. Usually Cmax stands for the maximum level reached in the sampled fluid or tissue. A word on the Tmax: it is the time at which the peak concentration occurs.

In data set [1] the test system is aumolertinib metabolism in human liver microsomes. Nature of the data set: Inhibition of aumolertinib metabolism in human liver microsomes (IC50, Ki). The format is in vitro ADME. As to conditions: human, human liver microsomes, probe aumolertinib 20 μM. For orientation: Microsomes from liver hold many membrane-bound enzymes, among them those of drug oxidation.
Experimental: (§1) When screening for inhibitors, the amount of RLM in the system and the reaction time were optimized and set to 0.5 mg/mL and 30 min, respectively. The concentration of the inhibitor was set at 100 μM. […] The above mixture was pre-incubated at 37 °C for 5 min, and then 1 mM NADPH was added to initiate the reaction, and incubated for another 30 min. Afterwards, 400 μL of cold acetonitrile and 20 μL of diazepam (500 ng/mL) were added to the system to stop the reaction. After vortexing for 2 min, the mixture is centrifuged at 16,200 g for 10 min and the supernatant is subjected to analysis by UPLC-MS/MS for the detection of analytes.
In data set [2] the test system is human liver microsomes (HLM). Described as above. Conditions: HLM. The format is in vitro ADME.
Experimental: as §1
Another data set deals with CYP3A4.1 (Homo sapiens, UniProt P08684).
The subject of data set [3] is aumolertinib metabolism in rat liver microsomes. In words: in vitro. As to conditions: probe aumolertinib 25 μM.
Experimental: as §1
For data set [4], the system named is rat liver microsomes (RLM). In words: Inhibition of aumolertinib metabolism in rat liver microsomes (screen, IC50, Ki).
Experimental: as §1
The conditions of data set [5]: rat, in vivo, po, 11 mg/kg.
For data set [6] the following is noted: mouse, in vivo, po.
Details of data set [7]: method as in Zhou et al., 2021; Liu et al., 2022a; Liu et al., 2022b. Conditions: ref Zhou et al., 2021, Liu et al., 2022a, 2022b; cited from earlier work.
Data set [8] can be described thus: Pharmacokinetics in AAV8-CYP3A4*1 mice.
Where [9] appears, read: aumolertinib 16.5 mg/kg oral alone (Aum).
Setting [10] is: carvedilol 7.5 mg/kg 0.5 h before aumolertinib 16.5 mg/kg oral (Car+Aum).

Read-outs that look alike come from different tables or passages of the source.

Sequence of CYP3A4.1 (P08684 whole entry): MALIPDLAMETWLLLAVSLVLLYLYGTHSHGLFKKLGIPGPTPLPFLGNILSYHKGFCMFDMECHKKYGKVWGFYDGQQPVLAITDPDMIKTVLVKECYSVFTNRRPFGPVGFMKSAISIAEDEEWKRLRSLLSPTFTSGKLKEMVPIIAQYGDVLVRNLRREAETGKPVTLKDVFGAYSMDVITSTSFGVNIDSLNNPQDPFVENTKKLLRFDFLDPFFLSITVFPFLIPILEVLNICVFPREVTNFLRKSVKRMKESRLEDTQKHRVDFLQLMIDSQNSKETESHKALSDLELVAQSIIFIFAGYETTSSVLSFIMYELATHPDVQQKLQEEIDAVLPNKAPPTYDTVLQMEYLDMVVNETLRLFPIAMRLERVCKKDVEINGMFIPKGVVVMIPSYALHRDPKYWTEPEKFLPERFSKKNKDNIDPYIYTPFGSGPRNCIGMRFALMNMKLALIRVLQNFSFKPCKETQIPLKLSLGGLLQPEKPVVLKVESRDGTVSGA

Consider `COc1ccccc1OCCNCC(O)COc1cccc2[nH]c3ccccc3c12` (stereo not shown) [Carvedilol], for which the figures for the concentration for half-maximal inhibition (IC50) at 30 min in data set [1] and in data set [3] were 12.7 ± 0.59 µM and 27.3 ± 2.52 µM, respectively. Further, the inhibition mechanism entry was “non-competitive and competitive mixed” in data set [2]; “competitively inhibited” at CYP3A4.1; “non-competitive and competitive mixed” in [4]. In addition, the Ki in data set [2] (Lineweaver-Burk secondary plot) amounted to 8.81 µM; in [4] (Lineweaver-Burk secondary plot), 16.7 µM. Besides, the results for the αKi in data set [2] (Lineweaver-Burk secondary plot) and in [4] (Lineweaver-Burk secondary plot) were 47.76 µM and 51.66 µM, respectively.
As to `C=CC(=O)Nc1cc(Nc2nccc(-c3cn(C4CC4)c4ccccc34)n2)c(OC)cc1N(C)CCNC` [HAS-719], in data set [5], the CLz/F amounted to 5750.5 ± 2617.5 mL/min/kg, the Vz/F was 1,913.68 ± 1,058.91 L/kg and the t1/2z turned out to be 3.69 ± 0.57 h. In data set [6], the area under the curve AUC(0-t) was 429.91 ± 178.00 ng·h/mL, the “AUC(0-∞)” value came out at 572.38 ± 354.11 ng·h/mL, the CLz/F worked out at 586.7 ± 249.8 mL/min/kg and the Cmax turned out to be 23.01 ± 11.89 ng/mL. In [6], the Tmax came out at 14.29 ± 13.44 h, the Vz/F is on record as 773.46±1,086.45 L/kg and the t1/2z is 14.62 ± 18.23 h. In addition, the “plasma exposure relative to the parent drug” value in data set [7] is given as 40%. In data set [8] (setting [9]), the “AUC(0-t)” value was 905.88 ± 375.90 ng·h/mL, the “AUC(0-∞)” value is 908.18 ± 374.69 ng·h/mL, the CLz/F worked out at 335 ± 128 mL/min/kg and the Cmax came out at 47.06 ± 20.43 ng/mL. In addition, in data set [8] (setting [9]), the Tmax stood at 10.71 ± 9.53 h, the Vz/F came out at 113.97 ± 104.36 L/kg and the t1/2z was 3.80 ± 2.94 h. Also, in data set [8] (setting [10]), the “AUC(0-t)” value amounted to 663.56 ± 198.24 ng·h/mL, the “AUC(0-∞)” value worked out at 669.24 ± 196.18 ng·h/mL, the CLz/F came to 423.8 ± 103 mL/min/kg and the Cmax was determined as 34.97 ± 15.02 ng/mL. In addition, in [8] (setting [10]), the Tmax came to 17.86 ± 10.53 h, the Vz/F worked out at 203.88 ± 121.79 L/kg and the t1/2z was 5.34 ± 2.61 h.
On to `CCCc1nc2c(C)cc(-c3nc4ccccc4n3C)cc2n1Cc1ccc(-c2ccccc2C(=O)O)cc1` [Telmisartan], for which the α in [2] is recorded as 0.59; in data set [2] (listed as telmisartan), below 1; in data set [4], 0.54; in data set [4] (listed as telmisartan) it was below 1. The compound further had an IC50 at 30 min in [3] of 12.8 ± 0.18 µM. The inhibition mechanism entry in data set [4] was “mixed (non-competitive and uncompetitive)”.
